Data: ChEMBL document CHEMBL1201862, “PubChem BioAssay data set” (2004)
The source made the active and inactive calls.

Legend:
[1] = molecular target: Sphingosine 1-phosphate receptor 2 (Homo sapiens, UniProt O95136); assay: Dose Response Cell Based Assay for Agonists of the S1P2 Receptor of Purchased Analogues. [Related pubchem assays: 729, 843, 854, 736 ]; format: functional
[2] = molecular target: T1, Bcl-2-like protein 10 (Homo sapiens, UniProt Q9HD36); assay: displacers of TR3 peptide from Bcl-B, primary screen, selectivity assay for Bfl-1 inhibitor project, biochemical, fluorescence polarization, FITC-TR3 peptide (AID 748);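 note: fluorescence polarization from a fluorescein-labelled TR3 peptide binding purified Bcl-B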
T1 sequence (Q9HD36 whole entry): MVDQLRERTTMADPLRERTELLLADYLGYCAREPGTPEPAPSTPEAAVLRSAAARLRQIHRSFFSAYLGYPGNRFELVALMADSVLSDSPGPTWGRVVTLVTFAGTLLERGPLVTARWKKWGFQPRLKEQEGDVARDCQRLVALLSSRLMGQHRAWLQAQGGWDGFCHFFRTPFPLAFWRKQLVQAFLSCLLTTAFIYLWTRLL

[3] = molecular target: T2, Estrogen receptor beta (Homo sapiens, UniProt Q92731);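 note: recombinant ER-beta bound to coactivator SRC1 peptide in presence of estradiol agonist; inhibitors block coactivator peptide binding and lower the FRET signal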
[4] = molecular target: T2, Estrogen receptor beta; assay: ERβ–SRC-3 coactivator interaction inhibitors, confirmation, orthogonal assay, biochemical, ELISA, streptavidin-HRP readout (AID 1060)
[5] = molecular target: T3, Caspase-3 (Homo sapiens, UniProt P42574); format: functional;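 note: Dose-response selectivity test against caspase-3 for candidate inhibitors of sentrin-specific proteases (SENPs)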
T3 sequence (P42574 whole entry): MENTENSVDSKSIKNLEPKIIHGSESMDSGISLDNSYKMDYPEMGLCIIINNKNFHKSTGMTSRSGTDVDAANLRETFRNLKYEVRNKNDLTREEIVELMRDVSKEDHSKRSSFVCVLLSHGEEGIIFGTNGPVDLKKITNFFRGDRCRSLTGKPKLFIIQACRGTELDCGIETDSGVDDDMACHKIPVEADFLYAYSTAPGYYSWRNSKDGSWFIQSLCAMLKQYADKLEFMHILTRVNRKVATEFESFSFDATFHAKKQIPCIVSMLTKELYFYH

[6] = molecular target: T4, Sentrin-specific protease 7 (Homo sapiens, UniProt Q9BQF6); format: functional;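 note: Luminescence-based dose-response confirmation of ultra-high-throughput screening hits, measuring inhibition of SENP7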
T4 sequence (Q9BQF6 whole entry): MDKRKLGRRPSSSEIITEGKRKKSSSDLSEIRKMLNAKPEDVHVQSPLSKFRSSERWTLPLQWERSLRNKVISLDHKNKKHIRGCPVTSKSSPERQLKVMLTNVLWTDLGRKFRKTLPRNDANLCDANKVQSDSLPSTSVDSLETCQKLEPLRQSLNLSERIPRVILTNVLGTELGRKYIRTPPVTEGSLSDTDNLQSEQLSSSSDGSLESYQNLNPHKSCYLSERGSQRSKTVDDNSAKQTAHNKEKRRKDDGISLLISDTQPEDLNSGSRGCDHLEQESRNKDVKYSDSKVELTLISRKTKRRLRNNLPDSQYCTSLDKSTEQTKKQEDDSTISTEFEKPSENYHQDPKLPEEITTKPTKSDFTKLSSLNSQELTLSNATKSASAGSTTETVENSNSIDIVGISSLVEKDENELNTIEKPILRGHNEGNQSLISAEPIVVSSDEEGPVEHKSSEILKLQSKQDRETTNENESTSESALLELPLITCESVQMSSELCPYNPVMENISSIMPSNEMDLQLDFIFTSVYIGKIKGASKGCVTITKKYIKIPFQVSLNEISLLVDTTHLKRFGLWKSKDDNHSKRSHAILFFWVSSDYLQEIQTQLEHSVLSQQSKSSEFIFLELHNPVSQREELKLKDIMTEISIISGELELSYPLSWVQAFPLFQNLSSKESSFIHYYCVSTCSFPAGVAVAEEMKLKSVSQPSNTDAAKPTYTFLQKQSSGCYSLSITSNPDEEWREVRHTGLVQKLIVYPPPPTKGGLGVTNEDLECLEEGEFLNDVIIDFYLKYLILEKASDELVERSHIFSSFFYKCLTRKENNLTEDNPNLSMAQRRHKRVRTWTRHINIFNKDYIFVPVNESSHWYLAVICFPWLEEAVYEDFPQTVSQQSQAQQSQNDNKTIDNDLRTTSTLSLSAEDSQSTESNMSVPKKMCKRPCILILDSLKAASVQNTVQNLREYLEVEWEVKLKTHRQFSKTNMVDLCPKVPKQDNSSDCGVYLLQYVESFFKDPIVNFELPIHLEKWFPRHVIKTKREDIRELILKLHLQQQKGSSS

[7] = molecular target: T5, Sentrin-specific protease 6 (Homo sapiens, UniProt Q9GZR1); format: functional;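 note: Luminescence-based dose-response confirmatory assay of SENP6 inhibition, following up an ultra-high-throughput screen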
T5 sequence (Q9GZR1 whole entry): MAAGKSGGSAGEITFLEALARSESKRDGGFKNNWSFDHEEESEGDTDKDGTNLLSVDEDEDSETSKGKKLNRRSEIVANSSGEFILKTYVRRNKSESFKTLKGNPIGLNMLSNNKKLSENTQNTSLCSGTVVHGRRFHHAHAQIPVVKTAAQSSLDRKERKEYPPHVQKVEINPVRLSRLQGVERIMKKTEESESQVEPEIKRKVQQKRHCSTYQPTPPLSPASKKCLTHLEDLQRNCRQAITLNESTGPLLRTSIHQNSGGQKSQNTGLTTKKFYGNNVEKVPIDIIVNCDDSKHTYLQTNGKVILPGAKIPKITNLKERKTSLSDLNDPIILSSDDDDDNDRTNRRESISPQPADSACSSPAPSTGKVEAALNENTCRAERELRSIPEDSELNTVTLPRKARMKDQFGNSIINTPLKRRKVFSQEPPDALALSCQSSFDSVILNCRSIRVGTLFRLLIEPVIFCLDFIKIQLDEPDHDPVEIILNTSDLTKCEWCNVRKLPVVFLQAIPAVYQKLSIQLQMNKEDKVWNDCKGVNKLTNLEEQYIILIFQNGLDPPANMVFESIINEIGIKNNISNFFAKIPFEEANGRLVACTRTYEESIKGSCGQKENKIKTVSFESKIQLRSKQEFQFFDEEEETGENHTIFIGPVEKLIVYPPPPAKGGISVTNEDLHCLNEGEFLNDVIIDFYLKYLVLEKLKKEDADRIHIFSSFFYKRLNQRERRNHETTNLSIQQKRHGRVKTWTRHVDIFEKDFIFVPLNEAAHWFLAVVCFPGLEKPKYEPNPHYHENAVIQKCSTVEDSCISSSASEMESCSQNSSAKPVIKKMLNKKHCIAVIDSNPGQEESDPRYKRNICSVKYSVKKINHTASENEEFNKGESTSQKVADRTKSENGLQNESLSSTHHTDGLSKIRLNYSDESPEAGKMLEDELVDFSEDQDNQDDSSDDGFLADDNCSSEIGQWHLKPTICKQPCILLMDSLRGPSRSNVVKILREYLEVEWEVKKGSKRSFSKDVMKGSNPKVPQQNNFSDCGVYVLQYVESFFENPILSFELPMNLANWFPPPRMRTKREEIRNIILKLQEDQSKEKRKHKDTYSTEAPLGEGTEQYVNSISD

[8] = molecular target: T6, Sentrin-specific protease 8 (Homo sapiens, UniProt Q96LD8); format: functional;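 note: luminescence read-out of SENP8 inhibition, dose-response confirmation following an ultra-high-throughput screen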
T6 sequence (Q96LD8 whole entry): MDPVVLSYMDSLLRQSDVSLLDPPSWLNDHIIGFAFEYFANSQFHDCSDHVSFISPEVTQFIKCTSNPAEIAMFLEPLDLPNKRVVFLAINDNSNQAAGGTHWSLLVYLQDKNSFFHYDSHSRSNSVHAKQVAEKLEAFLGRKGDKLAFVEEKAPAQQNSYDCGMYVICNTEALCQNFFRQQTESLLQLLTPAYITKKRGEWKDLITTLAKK

[9] = tested on: Vero; assay: Vero cell cytotoxicity, cytotoxicity control for flavivirus capping enzyme inhibitors (AID 588742); format: functional; conditions: Chlorocebus sabaeus
[10] = molecular target: Genome polyprotein (dengue virus type 2, UniProt P29990); assay: Dengue-2 NS5 methyltransferase inhibitors, primary screen, biochemical, confirmation dose response (AID 588689); format: functional
[11] = THP-1 cell cytotoxicity, dose response, cytotoxicity control for Vif-APOBEC3G degradation inhibitor project, THP-1 cells (AID 1117359); format: functional; conditions: Human immunodeficiency virus 1, THP-1
[12] = molecular target: Glutathione-S-transferase (Schistosoma japonicum, UniProt Q26513); assay: biotin-GST/anti-GST TR-FRET signal inhibitors, dose response, artefact control for Vif-APOBEC3G degradation inhibitor project, biochemical (AID 1117362); format: functional
[13] = molecular target: 5-hydroxytryptamine receptor 1E (Homo sapiens, UniProt P28566); assay: Counterscreen assay for S1P3 antagonists: Dose response cell-based high throughput screening assay to identify antagonists of the 5-Hydroxytryptamine Receptor Subtype 1E (5HT1E). [Related pubchem assays: 1429, 485 ]; format: functional
[14] = molecular target: Sphingosine 1-phosphate receptor 3 (Homo sapiens, UniProt Q99500); assay: Dose response cell-based high throughput screening assay for antagonists of the Sphingosine 1-Phosphate Receptor 3 (S1P3). [Related pubchem assays: 1429, 485 ]; format: functional
Sphingosine 1-phosphate receptor 3, sequence (Q99500 whole entry): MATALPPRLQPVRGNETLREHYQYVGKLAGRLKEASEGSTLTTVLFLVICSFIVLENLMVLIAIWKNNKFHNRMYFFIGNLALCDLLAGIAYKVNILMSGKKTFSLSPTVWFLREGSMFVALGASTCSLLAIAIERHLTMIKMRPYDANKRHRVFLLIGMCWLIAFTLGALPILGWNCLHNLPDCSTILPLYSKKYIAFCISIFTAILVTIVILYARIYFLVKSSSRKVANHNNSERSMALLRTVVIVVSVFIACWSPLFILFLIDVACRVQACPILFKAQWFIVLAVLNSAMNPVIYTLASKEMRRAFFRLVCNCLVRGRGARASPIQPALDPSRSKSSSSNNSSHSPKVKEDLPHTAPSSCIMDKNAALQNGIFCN

T2 sequence (Q92731 whole entry): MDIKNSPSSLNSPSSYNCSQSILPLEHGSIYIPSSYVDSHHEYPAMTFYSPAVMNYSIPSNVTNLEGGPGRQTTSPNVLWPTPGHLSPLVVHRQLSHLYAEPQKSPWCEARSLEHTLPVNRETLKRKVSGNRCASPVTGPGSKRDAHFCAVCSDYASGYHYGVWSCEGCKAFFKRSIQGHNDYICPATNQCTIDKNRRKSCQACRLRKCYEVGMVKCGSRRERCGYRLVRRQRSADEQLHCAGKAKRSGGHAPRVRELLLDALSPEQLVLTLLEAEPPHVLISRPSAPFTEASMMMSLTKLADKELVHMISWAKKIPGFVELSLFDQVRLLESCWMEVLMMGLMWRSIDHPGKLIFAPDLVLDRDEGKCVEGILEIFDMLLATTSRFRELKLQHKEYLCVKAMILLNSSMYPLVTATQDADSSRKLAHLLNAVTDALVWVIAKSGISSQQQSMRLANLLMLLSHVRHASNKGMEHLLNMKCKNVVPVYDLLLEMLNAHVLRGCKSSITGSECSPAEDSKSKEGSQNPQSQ
Sphingosine 1-phosphate receptor 2, sequence (O95136 whole entry): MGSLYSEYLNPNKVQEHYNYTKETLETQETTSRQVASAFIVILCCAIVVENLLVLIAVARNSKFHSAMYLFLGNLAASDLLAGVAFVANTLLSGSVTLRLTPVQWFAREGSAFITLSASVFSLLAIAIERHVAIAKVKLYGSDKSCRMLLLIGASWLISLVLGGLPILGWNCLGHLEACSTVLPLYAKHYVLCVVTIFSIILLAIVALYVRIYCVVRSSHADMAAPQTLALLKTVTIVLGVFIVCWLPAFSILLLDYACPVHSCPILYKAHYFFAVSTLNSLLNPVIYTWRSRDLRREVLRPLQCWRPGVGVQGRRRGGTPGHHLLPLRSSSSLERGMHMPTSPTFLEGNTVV
Glutathione-S-transferase, sequence (Q26513 whole entry): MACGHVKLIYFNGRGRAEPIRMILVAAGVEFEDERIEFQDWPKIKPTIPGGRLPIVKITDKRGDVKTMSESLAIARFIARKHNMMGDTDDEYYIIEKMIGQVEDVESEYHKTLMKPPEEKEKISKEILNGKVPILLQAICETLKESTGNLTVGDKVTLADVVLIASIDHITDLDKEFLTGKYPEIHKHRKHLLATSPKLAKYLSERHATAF
5-hydroxytryptamine receptor 1E, sequence (P28566 whole entry): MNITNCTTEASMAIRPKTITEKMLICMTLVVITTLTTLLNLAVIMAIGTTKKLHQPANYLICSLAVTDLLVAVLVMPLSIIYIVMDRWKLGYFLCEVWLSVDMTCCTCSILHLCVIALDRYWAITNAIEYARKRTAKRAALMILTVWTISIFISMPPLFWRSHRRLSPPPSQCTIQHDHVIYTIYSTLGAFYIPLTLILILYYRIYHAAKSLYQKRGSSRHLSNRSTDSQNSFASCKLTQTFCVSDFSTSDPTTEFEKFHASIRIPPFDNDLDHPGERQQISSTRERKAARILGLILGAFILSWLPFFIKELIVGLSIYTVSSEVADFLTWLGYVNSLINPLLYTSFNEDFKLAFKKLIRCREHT
Genome polyprotein, sequence (P29990 2492-3391 limits assumed): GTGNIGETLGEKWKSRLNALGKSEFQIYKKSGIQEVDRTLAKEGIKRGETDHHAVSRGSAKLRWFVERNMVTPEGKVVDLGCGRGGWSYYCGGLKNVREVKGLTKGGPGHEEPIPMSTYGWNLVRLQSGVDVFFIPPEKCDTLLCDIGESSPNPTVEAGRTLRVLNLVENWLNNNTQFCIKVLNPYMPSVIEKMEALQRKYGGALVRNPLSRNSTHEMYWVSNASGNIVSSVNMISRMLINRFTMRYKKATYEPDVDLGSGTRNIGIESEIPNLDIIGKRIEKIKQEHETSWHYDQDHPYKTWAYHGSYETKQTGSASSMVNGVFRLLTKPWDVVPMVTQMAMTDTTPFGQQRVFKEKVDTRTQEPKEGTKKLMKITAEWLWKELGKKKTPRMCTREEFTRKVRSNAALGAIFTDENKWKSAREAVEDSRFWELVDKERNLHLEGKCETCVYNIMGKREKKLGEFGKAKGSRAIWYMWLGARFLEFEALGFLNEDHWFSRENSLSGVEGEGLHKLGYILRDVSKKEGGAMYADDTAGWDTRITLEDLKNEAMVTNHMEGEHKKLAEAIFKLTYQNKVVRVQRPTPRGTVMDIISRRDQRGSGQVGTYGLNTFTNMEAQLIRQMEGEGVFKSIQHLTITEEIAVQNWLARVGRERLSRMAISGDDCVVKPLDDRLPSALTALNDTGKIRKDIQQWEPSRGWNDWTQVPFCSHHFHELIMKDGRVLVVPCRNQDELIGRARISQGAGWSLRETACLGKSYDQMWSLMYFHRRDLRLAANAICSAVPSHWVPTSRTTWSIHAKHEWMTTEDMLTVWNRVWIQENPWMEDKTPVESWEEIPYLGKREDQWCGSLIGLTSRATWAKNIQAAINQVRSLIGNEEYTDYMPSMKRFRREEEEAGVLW

Cc1noc(C)c1C(=O)OCC(=O)c1cc(C)n(Cc2ccccc2)c1C
> 30 µM (not active): EC50 [1]

Cc1ccc2c(c1)c(=O)c1c3n2CCN(C(=O)CCl)C3CC1 (centres undefined)
active: IC50 [2] 11.4 µM | IC50 [3] 8.75 µM | IC50 [5] 14 µM | IC50 [6] 23.9 µM | IC50 [7] 8.69 µM | IC50 [8] 14.2 µM | CC50 [9] 13.1 µM | IC50 [10] > 100 µM | CC50 [11] 10.9 µM | IC50 [12] > 100 µM
0.348 µM (not active): IC50 [4]

CCCn1nc2ccccc2c1P(=O)(N1CCOCC1)N1CCOCC1
> 50 µM (not active): IC50 [13] | IC50 [14]
